Reference: patent US9889115B2, “Fitness assay and associated methods” (priority 1998, dated 2018)

How the values were obtained:
HIV-1 protease G48V/V82A = target: T1, HIV-1 protease G48V/V82A (Human immunodeficiency virus type 1 group M subtype B, UniProt P04585, G536V/V570A); assay: continuous fluorogenic HIV protease assay; format: biochemical
T1 construct: proteases containing the deleterious drug resistance associated mutations V82F/I84V and G48V/V82A
Experimental: This example describes the protocol for the sensitive continuous fluorogenic assay for HIV protease of the present invention and its application. […] 21702-1201, upon written request. The inhibition constant for wild-type HIV-1, Kimnt/Kiwt ratio, and vitality were measured. (See Gulnik et al., Biochemistry, 34, 9282-9287 (1995). Protease activity was measured using the fluorgenic substrate Lys-Ala-Arg-Val-Tyr-Phe(NO2)-Glu-Ala-Nle-NH2 (Bachem Bioscience, Inc.). (See Peranteau et al., D.H. (1995) Anal. Biochem.).
The reaction was initiated by the addition of 5 μl of substrate stock solution in water. Increase in fluorescence intensity at the emission maximum of 306 nm (excitation wavelength was 277 nm) was monitored as a function of time using Aminco Bowman-2 luminescence spectrometer (SLM Instruments, Inc.). The initial rate of hydrolysis was calculated by second degree polynomial fit using SLM AB2 2.0 operating software.
For inhibition studies, inhibitors were prepared as stock solutions at different concentrations in dimethylsulfoxide. […] The reaction was initiated by the addition of 5 μl of substrate stock solution in water. For data analysis, the mathematical model for tight-binding inhibitors was used. (See Williams and Morrison (1979), In: Methods of Enzymol. 63, (ed. D. L. Purich), 437-467, Academic Press, NY, London). […]
This example describes the inhibitory activity of compounds 35 (FIG. 5A), 36 (FIG. 5B), 37 (FIG. 5C) and 38 (FIG. 5D). In accordance with the technique disclosed in Example 13 above, the inhibitory activity of these compounds was tested against proteases of the wild-type HIV-1. Compound 36, 37 and 38 were also tested against proteases containing the deleterious drug resistance associated mutations V82F/I84V and G48V/V82A. Fitness was determined in accordance with Example 13.

HIV-1BAL = assay: PHA-PBMC assay, p24 Gag protein production; format: cell-based
[1] = target: T2, wild-type HIV-1 (WT) protease (Human immunodeficiency virus type 1 group M subtype B, UniProt P04585); assay: continuous fluorogenic HIV protease assay; format: biochemical; details: WT (Table 7)
T2 construct: the proteases of wild-type HIV-1 (WT)
Experimental: (§1) This example describes the protocol for the sensitive continuous fluorogenic assay for HIV protease of the present invention and its application. […] The inhibition constant for wild-type HIV-1, Kimnt/Kiwt ratio, and vitality were measured.
(§2) The reaction was initiated by the addition of 5 μl of substrate stock solution in water. […] The initial rate of hydrolysis was calculated by second degree polynomial fit using SLM AB2 2.0 operating software.
(§3) For inhibition studies, inhibitors were prepared as stock solutions at different concentrations in dimethylsulfoxide. […] The reaction was initiated by the addition of 5 μl of substrate stock solution in water. For data analysis, the mathematical model for tight-binding inhibitors was used.

HIV-1 protease V82F/I84V [2] = target: T3, HIV-1 protease V82F/I84V (Human immunodeficiency virus type 1 group M subtype B, UniProt P04585, I572V/V570F); assay: continuous fluorogenic HIV protease assay; format: biochemical; details: V82F/I84V (Table 7)
T3 construct: the proteases of wild-type HIV-1 (WT) and various mutant enzymes
Experimental: as §1, §2, §3

HIV-1 protease V82F/I84V [3] = assay: continuous fluorogenic HIV protease assay; format: biochemical
Experimental: as §1, §2, §3

HIV-1LAI [4] = assay: MT-2 cells, MTT assay; format: cell-based; details: HIV-1LAI; MT-2/MTT, day 7
Experimental: All drug sensitivities were performed in triplicate. […] The IC50's were determined using the MTT assay on day 7 of culture. All sensitivities were determined in […].

HIV-1LAI [5] = assay: PHA-PBMC assay, p24 Gag protein production; format: cell-based; details: HIV-1LAI
wild-type HIV-1 (WT) = assay: IC50 against wild-type HIV-1 (Table 9a); format: cell-based; details: Human immunodeficiency virus 1; (WT)
[6] = tested on: multidrug-resistant HIV-1 clinical isolate, patient 17; assay: microbe, parasite or virus in culture; format: cell-based; details: Human immunodeficiency virus 1; Patient Isolate 17
Experimental: (§4) The mutant multidrug-resistant HIV-1 strains corresponding to each patient, numbered 9-35, were genetically analyzed in terms of the nucleic acid sequences of the protease (PR) and a portion of the reverse transcriptase (RT) genes from which mutations in these enzymes were determined. The mutations in the protease and reverse transcriptase of the multidrug-resistant viruses isolated from each patient are shown below in Table 9b.

[7] = tested on: multidrug-resistant HIV-1 clinical isolate, patient 14; assay: microbe, parasite or virus in culture; format: cell-based; details: Human immunodeficiency virus 1; Patient Isolate 14
Experimental: as §4

[8] = tested on: multidrug-resistant HIV-1 clinical isolate, patient 35; assay: microbe, parasite or virus in culture; format: cell-based; details: Human immunodeficiency virus 1; Patient Isolate 35
Experimental: as §4

[9] = tested on: multidrug-resistant HIV-1 clinical isolate, patient 28; assay: microbe, parasite or virus in culture; format: cell-based; details: Human immunodeficiency virus 1; Patient Isolate 28
Experimental: as §4

[10] = tested on: multidrug-resistant HIV-1 clinical isolate, patient 11; assay: microbe, parasite or virus in culture; format: cell-based; details: Human immunodeficiency virus 1; Patient Isolate 11
Experimental: as §4

[11] = tested on: multidrug-resistant HIV-1 clinical isolate, patient 23; assay: microbe, parasite or virus in culture; format: cell-based; details: Human immunodeficiency virus 1; Patient Isolate 23
Experimental: as §4

[12] = tested on: multidrug-resistant HIV-1 clinical isolate, patient 19; assay: microbe, parasite or virus in culture; format: cell-based; details: Human immunodeficiency virus 1; Patient Isolate 19
Experimental: as §4

[13] = tested on: multidrug-resistant HIV-1 clinical isolate, patient 9; assay: microbe, parasite or virus in culture; format: cell-based; details: Human immunodeficiency virus 1; Patient Isolate 9
Experimental: as §4

[14] = tested on: multidrug-resistant HIV-1 clinical isolate, patient 30; assay: microbe, parasite or virus in culture; format: cell-based; details: Human immunodeficiency virus 1; Patient Isolate 30
Experimental: as §4

[15] = tested on: multidrug-resistant HIV-1 clinical isolate, patient 15; assay: microbe, parasite or virus in culture; format: cell-based; details: Human immunodeficiency virus 1; Patient Isolate 15
Experimental: as §4

[16] = tested on: multidrug-resistant HIV-1 clinical isolate, patient 16; assay: microbe, parasite or virus in culture; format: cell-based; details: Human immunodeficiency virus 1; Patient Isolate 16
Experimental: as §4

[17] = tested on: multidrug-resistant HIV-1 clinical isolate, patient 10; assay: microbe, parasite or virus in culture; format: cell-based; details: Human immunodeficiency virus 1; Patient Isolate 10
Experimental: as §4

[18] = tested on: multidrug-resistant HIV-1 clinical isolate, patient 33; assay: microbe, parasite or virus in culture; format: cell-based; details: Human immunodeficiency virus 1; Patient Isolate 33
Experimental: as §4

[19] = tested on: multidrug-resistant HIV-1 clinical isolate, patient 31; assay: microbe, parasite or virus in culture; format: cell-based; details: Human immunodeficiency virus 1; Patient Isolate 31
Experimental: as §4

[20] = tested on: multidrug-resistant HIV-1 clinical isolate, patient 18; assay: microbe, parasite or virus in culture; format: cell-based; details: Human immunodeficiency virus 1; Patient Isolate 18
Experimental: as §4

[21] = tested on: multidrug-resistant HIV-1 clinical isolate, patient 12; assay: microbe, parasite or virus in culture; format: cell-based; details: Human immunodeficiency virus 1; Patient Isolate 12
Experimental: as §4

[22] = tested on: multidrug-resistant HIV-1 clinical isolate, patient 32; assay: microbe, parasite or virus in culture; format: cell-based; details: Human immunodeficiency virus 1; Patient Isolate 32
Experimental: as §4

[23] = tested on: multidrug-resistant HIV-1 clinical isolate, patient 21; assay: microbe, parasite or virus in culture; format: cell-based; details: Human immunodeficiency virus 1; Patient Isolate 21
Experimental: as §4

[24] = tested on: multidrug-resistant HIV-1 clinical isolate, patient 13; assay: microbe, parasite or virus in culture; format: cell-based; details: Human immunodeficiency virus 1; Patient Isolate 13
Experimental: as §4

[25] = tested on: multidrug-resistant HIV-1 clinical isolate, patient 27; assay: microbe, parasite or virus in culture; format: cell-based; details: Human immunodeficiency virus 1; Patient Isolate 27
Experimental: as §4

[26] = tested on: multidrug-resistant HIV-1 clinical isolate, patient 29; assay: microbe, parasite or virus in culture; format: cell-based; details: Human immunodeficiency virus 1; Patient Isolate 29
Experimental: as §4

[27] = tested on: multidrug-resistant HIV-1 clinical isolate, patient 20; assay: microbe, parasite or virus in culture; format: cell-based; details: Human immunodeficiency virus 1; Patient Isolate 20
Experimental: as §4

HIV-1ERS104pre = assay: PHA-PBMC assay, p24 Gag protein production; format: cell-based; details: Human immunodeficiency virus 1; HIV-1ERS104pre, SI; PHA-PBMC, p24
Experimental: (§5) The patient profiles are shown below in Table 2.
(§6) To determine protease inhibitory activity against multidrug resistant HIV, the IC50's were measured against a panel of clinically isolated mutant HIV isolates.
(§7) All drug sensitivities were performed in triplicate. In order to determine whether the HIV isolates were syncitium inducing (SI) or non-syncitium inducing (NSI), an aliquot of viral stock supernatant, containing 100 TCID50, was cultured with 1×10^5 MT-2 cells in a 12-well plate. Cultures were maintained for four weeks and were examined for syncytium formation twice a week.

[28] = tested on: multidrug-resistant HIV-1 clinical isolate, patient 1; assay: PHA-PBMC assay, p24 Gag protein production; format: cell-based; details: Human immunodeficiency virus 1; Patient/Isolate code 1; PHA-PBMC, p24
Experimental: as §5, §6, §7

[29] = tested on: multidrug-resistant HIV-1 clinical isolate, patient 6; assay: PHA-PBMC assay, p24 Gag protein production; format: cell-based; details: Human immunodeficiency virus 1; Patient/Isolate code 6; PHA-PBMC, p24
Experimental: as §5, §6, §7

[30] = tested on: multidrug-resistant HIV-1 clinical isolate, patient 8; assay: PHA-PBMC assay, p24 Gag protein production; format: cell-based; details: Human immunodeficiency virus 1; Patient/Isolate code 8; PHA-PBMC, p24
Experimental: as §5, §6, §7

[31] = tested on: multidrug-resistant HIV-1 clinical isolate, patient 7; assay: PHA-PBMC assay, p24 Gag protein production; format: cell-based; details: Human immunodeficiency virus 1; Patient/Isolate code 7; PHA-PBMC, p24
Experimental: as §5, §6, §7

[32] = tested on: multidrug-resistant HIV-1 clinical isolate, patient 3; assay: PHA-PBMC assay, p24 Gag protein production; format: cell-based; details: Human immunodeficiency virus 1; Patient/Isolate code 3; PHA-PBMC, p24
Experimental: as §5, §6, §7

[33] = tested on: multidrug-resistant HIV-1 clinical isolate, patient 2; assay: PHA-PBMC assay, p24 Gag protein production; format: cell-based; details: Human immunodeficiency virus 1; Patient/Isolate code 2; PHA-PBMC, p24
Experimental: as §5, §6, §7

[34] = tested on: multidrug-resistant HIV-1 clinical isolate, patient 4; assay: PHA-PBMC assay, p24 Gag protein production; format: cell-based; details: Human immunodeficiency virus 1; Patient/Isolate code 4; PHA-PBMC, p24
Experimental: as §5, §6, §7

[35] = tested on: multidrug-resistant HIV-1 clinical isolate, patient 5; assay: PHA-PBMC assay, p24 Gag protein production; format: cell-based; details: Human immunodeficiency virus 1; Patient/Isolate code 5; PHA-PBMC, p24
Experimental: as §5, §6, §7

[36] = tested on: multidrug-resistant HIV-1 clinical isolate, patient 22; assay: IC50 against multidrug-resistant clinical isolates (Table 9a); format: cell-based; details: Human immunodeficiency virus 1
Experimental: as §4

[37] = tested on: multidrug-resistant HIV-1 clinical isolate, patient 34; assay: as above; format: cell-based; details: Human immunodeficiency virus 1
Experimental: as §4

## CC(C)CN(C[C@@H](O)[C@H](Cc1ccccc1)NC(=O)O[C@H]1CO[C@H]2OCC[C@H]21)S(=O)(=O)c1cccc(CO)c1 [Compound 38]
HIV-1 protease G48V/V82A; G48V/V82A
  KI-wt/KI-mut: >6.8
  Ki: 0.034 nM
HIV-1 protease G48V/V82A; G48V/V82A relative to WT
  Fitness: >1.8
HIV-1BAL; HIV-1Ba-L, PBMC/p24, day 7 (Table 8)
  IC50: 9.3 nM
[1]
  Ki: > 0.005 nM
HIV-1 protease V82F/I84V [2]
  Ki: 0.0668 nM
HIV-1 protease V82F/I84V [3]; V82F/I84V (Table 7)
  KI-wt/KI-mut: >13
HIV-1 protease V82F/I84V [3]; V82F/I84V relative to WT (Table 7)
  Fitness: >2.1
HIV-1LAI [4]
  IC50: 28 nM
HIV-1LAI [5]; PBMC/p24, day 7 (Table 8)
  IC50: 8 nM

## CC(C)(C)NC(=O)[C@@H]1C[C@@H]2CCCC[C@@H]2CN1C[C@@H](O)[C@H](Cc1ccccc1)NC(=O)[C@H](CC(N)=O)NC(=O)c1ccc2ccccc2n1 [SAQ, Saquinavir]
wild-type HIV-1 (WT)
  IC50: 7 nM
HIV-1BAL; Human immunodeficiency virus 1, HIV-1BAL, NSI, PHA-PBMC, p24 (Table 3)
  IC50: 3.7 nM
[6]
  IC50: 107 nM
[7]
  IC50: 40 nM
[8]
  IC50: 61.6 nM
[9]
  IC50: > 312 nM
[10]
  IC50: 1 nM
[11]
  IC50: 8 nM
[12]
  IC50: 55 nM
[13]
  IC50: > 312 nM
[14]
  IC50: 191 nM
[15]
  IC50: > 312 nM
[16]
  IC50: > 312 nM
[17]
  IC50: > 312 nM
[18]
  IC50: 59 nM
[19]
  IC50: 74 nM
[20]
  IC50: 39 nM
[21]
  IC50: > 312 nM
[22]
  IC50: > 312 nM
[23]
  IC50: 210 nM
[24]
  IC50: > 312 nM
[25]
  IC50: > 312 nM
[26]
  IC50: 50 nM
[27]
  IC50: 32 nM
HIV-1ERS104pre
  IC50: 10 nM
[28]
  IC50: 290 nM
[29]
  IC50: 190 nM
[30]
  IC50: 9 nM
[31]
  IC50: 120 nM
[32]
  IC50: 36 nM
[33]
  IC50: 35 nM
[34]
  IC50: 33 nM
[35]
  IC50: 240 nM
[36]
  IC50: 3 nM
[37]
  IC50: 63 nM
HIV-1LAI [5]; Human immunodeficiency virus 1, SI, PHA-PBMC, p24 (Table 3)
  IC50: 5.4 nM
